“Also recorded” adds a separate entry of the source.
Experiments:
[1] = system: S. aureus (strain: SH1000); assay: Rabbit periprosthetic joint infection (PJI) model, ex vivo or in vivo treatment at I&D 2 days post infection, implant CFU; design: species or system Staphylococcus aureus
Procedure: (§1) A PJI New Zealand White Rabbit Animal model was used. A 3D printed tibia titanium implant was placed in the knee, and inoculated with S. aureus (strain: SH1000, inoculation density 2×10^6) after closure of the arthrotomy.
(§2) The rabbit is anesthetized with ketamine 40 mg/kg and xylazine 2 mg/kg during surgery. A bone tunnel in the tibial canal is created using a drill with a 1.2 mm or 1.6 mm tungsten carbide drill bit. The bone tunnel is then dried and treated to simulate acute human PJI following primary arthroplasty. A 3D printed titanium implant will then be placed in the bone tunnel and the wound closed. Prior to closure of the superficial skin layer, 0.1 mL of 2×10^6 planktonic bacteria (S. aureus; strain: SH1000; CFU/rabbit) in saline is injected into the joint space. A closure is performed, and a biofilm is allowed to become established over 2 days.
After 48 hours, animals were sacrificed and the implants were exposed to either topical cefazolin (10 mg/kg) or topical WLBU2 (1 mg/mL) in PBS (pH 7.4). Implants were sonicated 10 minutes, and colony forming unit (CFU) assay was performed on blood agar plates to quantify bacterial burden.
At 2 days post infection irrigation and debridement (I&D) was performed on the infected joint. Treatment with PLG0206 was administered at 1 mg/mL concentration (ex vivo or in vivo) and 0.5 mg/mL concentration (in vivo) at 15 (ex vivo and in vivo), and 7.5 minutes (in vivo) exposure times. For the ex vivo administration, the implant was removed and exposed to PLG0206 solution in a tube for 15 minutes. For the in vivo administration, irrigation and debridement on the joint was performed followed by PLG0206 treatment. The animals were euthanized after treatment, and the implants removed post mortem.

[2] = system: S. aureus SH1000 mature biofilms; assay: S. aureus biofilm implant in vitro killing assay (mature biofilm on Kirschner wire, CFU analysis); type: cell-based, Staphylococcus aureus; details: for time to achieve 99.9% reduction of biofilm CFU compared to untreated implant pieces: treated in MHB media
Procedure: (§3) Bacterial strains and culture. S. aureus SH1000 was used for in vitro assays and the PJI animal model. SH1000 was inoculated in Tryptic Soy Broth (TSB, Becton Dickinson and Company) overnight at 37° C. with shaking at 250 rpm. Strains were diluted in Mueller Hinton Broth (MHB; Bectin Dickinson and Company) to a final concentration of 0.5×10^6 CFU/ml using the 0.5 MacFarland Standard (GFS Chemicals) and an Infinite M200 Spectrophotometer (Tecan). WLBU-2 (PLG0206) was supplied by Peptilogics (San Jose, California). All experiments were performed at least in triplicate at three separate times with freshly inoculated cultures.
S. aureus biofilm implant in vitro killing assays. Implant material was prepared from 0.6 mm diameter stainless steel Kirschner wire (Synthes) and cut into 6 mm length, autoclaved, and plated in wells along with SH1000 and all clinical strains at 1×10^6 CFU/ml. After plating, fresh MHB media was exchanged at 24 hours. At 48 hours, wire with mature biofilms were either placed into fresh MHB with either cefazolin or WLBU-2. Biofilms were treated with cefazolin at 0.13, 0.25, 0.5, and 1 mg/ml or WLBU-2 at 62, 125, 250, and 500 μg/ml. Cefazolin treated biofilm were removed 2, 6, and 24 hours after drug addition, WLBU-2 treated biofilm were removed 5 min, 20 min, 60 min, and 2 hours after drug addition. After treatment, Kirschner wires were placed in 1 ml of 1% Tween 20 and sonicated for 10 minutes. Sonicate was serially diluted and plated on TSA II with 5% sheep blood CS100 plates blood agar for colony forming unit (CFU) analysis. For pH analysis, prior to WLBU-2 addition, PBS was adjusted to more acidic pH using hydrochloric acid and more alkaline pH using ammonium hydroxide. Infected implant pieces were tested with WLBU-2 at both 0.5 and 1.0 μg/ml in PBS adjusted to pH of 6.5, 6.8, 7.0, 7.2, 7.4, and 8.0. Biofilm implant pieces were treated at very early time points of 2.5-20 minutes, then CFU analysis was performed.
as §3, with “Becton” for “Bectin”
S. aureus biofilm implant in vitro killing assays. Implant material was prepared from 0.6 mm diameter stainless steel Kirschner wire (Synthes) and cut into 6 mm length, autoclaved, and plated in wells along with SH1000 and all clinical strains at 1×10^6 CFU/ml. After plating, fresh MHB media was exchanged at 24 hours. At 48 hours, wire with mature biofilms were either placed into fresh MHB, normal saline, lactated ringers, or dPBS with fold dilutions of WLBU-2 at 62, 125, 250, 500, and 1000 μg/ml. dPBS solutions were prepared using any combination of the salt buffers listed in Table 3, dissolved in sterile, deionized water. After treatment, Kirschner wires were placed in 1 ml of 1% Tween 20 in dPBS and sonicated for 10 minutes. Sonicate was serially diluted and plated on TSA II with 5% sheep blood CS100 plates blood agar for colony forming unit (CFU) analysis. For pH analysis, prior to WLBU-2 addition, dPBS was adjusted to more acidic pH using hydrochloric acid and more alkaline pH using ammonium hydroxide. Infected implant pieces were tested with WLBU-2 at both 0.5 and 1.0 mg/ml in PBS adjusted to pH of 6.5, 6.8, 7.0, 7.2, 7.4, and 8.0. For ionic strength analysis, dPBS was adjusted to hypertonic conditions by addition of NaCl to dPBS (0.3 M) and hypotonic conditions by addition of deionized water to dPBS (0.08 M). […]

[3] = system: S. aureus (strain: SH1000); assay: Rabbit PJI model, I&D with PLG0206 and/or systemic cefazolin, implant and tibia CFU up to Day 28; type: in vivo, Staphylococcus aureus
Procedure: as §1, §2
At 2 days post infection I&D will be performed on the infected joint and treatments will begin. Animals will receive treatment with an I&D alone, I&D with PLG0206, systemic treatment with cefazolin, or both PLG0206 and cefazolin When an animal dies or is sick and needs to be euthanized, the implant and a part of the tibia will be collected post mortem and bacterial burden will be determined by CFU. All surviving animals will be euthanized on Day 28 and the implant and tibia will be collected post mortem for CFU analysis.

[4] = system: S. aureus SH1000 biofilm on PJI implant; assay: Periprosthetic Joint Infection Murine Washout Model (implant retrieved from mice, washed with peptide, CFU analysis); type: in vivo, Staphylococcus aureus; details: mouse
Source text: Periprosthetic Joint Infection Murine Washout Model. Twelve-week-old […] female mice (Jackson) were used for all experiments. Mice were anesthetized by 2% isoflurane, hair was removed from leg and treated with betadine. With a scalpel, a medial parapatellar incision was made, and lateral displacement of the quadriceps-patellar complex allowed for visualization of the femoral intercondylar notch. With a 25-gauge needle, the femoral intramedullary canal was manually reamed. Mature S. aureus biofilm previously established on a 0.6 mm wide/6 mm long Kirschner wire (Synthes) was inserted into the reamed canal, and sutured closed. 48 hours later, mice were euthanized and the infected Kirschner wire implant were extracted, placed in WLBU-2 at 1.0 mg/ml in PBS previously pH adjusted to 6.5, 7.0, 7.2, or 7.4 for 10 minutes, and then placed 1% Tween 20 on ice. Implants were sonicated for 10 minutes. Samples were serially diluted and plated on TSA II with 5% sheep blood CS100 plates for CFU analysis.

## WLBU-2: RRWVRRVRRVWRRVVRVVRRWVRR (SEQ ID NO: 10); synthetically engineered cationic antimicrobial peptide (RRWVRRVRRVWRRVVRVVRRWVRR; Antimicrobial peptide WLBU-2)
[1]; ex vivo treatment, 1 mg/mL, 15 minutes
  reduction in bacterial burden in comparison to control: greater than 2 log
[1]; in vivo study
  reduction in bacterial burden, 1 mg/ml for 15 minutes in comparison to 0.5 mg/ml: significantly greater reduction
[1]; in vivo treatment after I&D
  reduction in bacterial burden in comparison to control: greater than 2 log
[2]; 1.0 mg/ml in 6.5 pH PBS
  contact time needed to achieve a three-log reduction in biofilm CFU: 15 minutes
[2]; 1.0 mg/ml in 8.0 pH PBS
  contact time needed to achieve a three-log reduction in biofilm CFU: 2.5 minutes
[2]; PBS pH 7.4
  biofilm CFU after treatment (sterile samples): 0 CFU
[2]; PBS pH 8.0
  biofilm CFU after treatment (sterile samples): 0 CFU
[2]; dPBS at pH 7.5, 10 minutes, 62, 125, 250, 500 and 1000 μg/mL
  reduction in biofilm CFU: three-log reduction or greater; also recorded: three-log reduction
[2]; dPBS, pH 7.0, 62-1000 μg/ml, 10 minutes
  reduction in bacterial biofilm: over 99.9%
[2]; hypertonic dPBS at pH 7.5, 10 minutes
  reduction in biofilm CFU: a three-log reduction was not achieved
[2]; hypotonic dPBS at pH 7.5, 10 minutes, 62, 125, 250, 500 and 1000 μg/mL
  biofilm CFU after treatment: 0 CFU
[2]; hypotonic dPBS of 0.08 M
  time needed to obtain 0 CFU sterile samples, compared to hypertonic dPBS: less time needed
  time needed to obtain a three-log reduction, compared to hypertonic dPBS: less time needed
[2]; in buffered PBS, doses of 62-1000 μg/ml
  time to achieve a 99.9% reduction in biofilm CFU: ≤ 20 min
[2]; lactated ringers, pH 6.5, 62-1000 μg/ml, 10 minutes
  reduction in bacterial biofilm: over 99.9%
[2]; normal saline, measured pH of 5.8, 62-1000 μg/ml, 10 minutes
  reduction in bacterial biofilm CFUs: ~99%
[2]; pH of the washout solution above 7.0
  contact time needed to obtain above a 99.9% clearance of biofilms: under 5 minutes
[2]
  time to achieve 99.9% reduction of biofilm CFU compared to untreated implant pieces: under 2 hours
[3]; 1 mg/ml PLG0206 in combination with cefazolin (Group 4)
  reduction in bacterial burden: 2.5 log
[3]; 1 mg/ml treatment alone (Group 3)
  bacterial burden in comparison to control: not significant
[4]; 1.0 mg/ml in PBS pH 7.0, 10 minutes
  biofilm CFU on PJI implant compared to No Drug group: significant reduction
[4]; 1.0 mg/ml in PBS pH 7.2, 10 minutes
  biofilm CFU on PJI implant compared to No Drug group: significant reduction
[4]; 1.0 mg/ml in PBS pH 7.4, 10 minutes
  biofilm CFU on PJI implant compared to No Drug group: significant reduction
[4]; 1.0 mg/ml in PBS, 10 minutes
  biofilm CFU on PJI implant, washout with 7.4 pH compared to washout with 6.5 pH: significantly less; also recorded: significant reduction

## Cc1nnc(SCC2=C(C(=O)O)N3C(=O)[C@@H](NC(=O)Cn4cnnn4)[C@H]3SC2)s1 [Cefazolin, reference compound]
[2]; MHB, 6 hours
  decrease in biofilm CFU over 6 hours: only a modest decrease
[2]
  time to achieve 99.9% reduction of biofilm CFU compared to untreated implant pieces: over 24 hours
[3]; cefazolin treatment alone (Group 2)
  reduction in bacterial burden: 1.5 log

Source: patent publication US11951151B2, “Compositions comprising antimicrobial peptides” (University of Pittsburgh—Of the Commonwealth System of …, priority 2019, dated 2024)
